Data on two molecules can be found in patent US20260167629A1, “NOVEL INDAZOLE DERIVATIVE OR PHARMACEUTICALLY ACCEPTABLE SALT THEREOF, AND USE THEREOF” (KOREA UNIVERSITY RESEARCH AND BUSINESS FOUNDATION, priority 2022, published 2026).

Experiment [1] concerns BT474 breast cancer cell line. Briefly: Flow cytometry DNA content (PI), cell cycle arrest and cell death, BT474. In kind it is cell-based. To be noted: BT474, 5 and 10 μM, 72 hours, flow cytometer. The method, then: (§1) The degree of cancer cell death by the indazole derivative of the present disclosure was measured by analyzing DNA content using a flow cytometer. Cells were treated with compound 18c (formula 1-16) and compound 11k (formula 1-7) at concentrations of 0 (DMSO), 5, and 10 μM for 72 hours, and then the cells were harvested. Thereafter, the cells were fixed with 95% ethanol containing 0.5% Tween-20 for 24 hours, and stained with propidium iodide (PI, 50 μg/mL) and RNase (50 μg/mL) for 30 minutes. Afterwards, the degree of cancer cell death was analyzed using a flow cytometer.
(§2) In general, the cell cycle is divided into G1 (cell growth phase)—S(cell replication phase)—G2/M (cell division phase) according to the content of intracellular DNA. […] The results of this cell death within the cell cycle are manifested by the Sub-G1 region, and the percentage of Sub-G1 induced by the indazole derivative of the present disclosure is shown numerically in FIGS. 5B and 6B.
In general terms: A flow cytometer gives signals particle by particle.

For experiment [2], the system named is Hsp90 clients in JIMT-1 cell line. Briefly: Western blotting of Hsp90 clients, JIMT-1. In kind it is cell-based. To be noted: JIMT-1, 10 μM, 72 hours. The method, then: (§3) To perform western blotting, BT-474 and JIMT-1 cell lines were treated with control (DMSO), compound 18c, and compound 11k at concentrations of 10 μM each for 72 hours, and then lysed in lysis buffer (30 mM NaCl, 0.5% Triton X-100, 50 mM Tris-HCl; pH 7.4) containing phosphatase and protease inhibitors. The proteins present in the supernatant were harvested. The protein concentration was measured using a Bradford protein assay kit, and 30 μg of protein was taken equally from each experimental group. These proteins were electrophoresed on SDS-Polyacrylamide gels (8-15%), and electrically transferred to a nitrocellulose membrane. The membrane was reacted with primary antibodies [pro PARP (1:1000), cleaved PARP (1:2000), cleaved caspase-3 (1:1000), cleaved caspase-7 (1:1000), β-actin (1:5000)] diluted in 5% bovine serum albumin (BSA) at 4° C. for 24 hours, followed by a secondary antibody, horseradish peroxidase (HRP)-conjugated rabbit IgG (1:3000) for 2 hours at room temperature. The signal intensity of the above proteins was checked by color development using an Enhanced Chemiluminescence Kit and x-ray film.
Western blotting was used to investigate whether Hsp90 inhibitors, compound 18c (formula 1-16) and compound 11k (formula 1-7), could downregulate the expression and activity (phosphorylation) of HER2 and HER3, which are representative clients of Hsp90, in BT474 and JIMT-1 cell lines. The expression of Akt, MEK, ERK, Bcl-2, Cyclin D1, and Survivin, which are key factors for cell survival as Hsp90 clients, was also investigated. The western blotting was performed by the method that was used in Experimental Example 2.3.
The BT474 and JIMT-1 cell lines were treated with compound 18c and compound 11k at a concentration of 10 μM for 72 hours.
For orientation: In western blotting, separated proteins are transferred to a membrane and probed.

Experiment [3] concerns JIMT-1 breast cancer cell line. The experiment in a line: Flow cytometry DNA content (PI), cell cycle arrest and cell death, JIMT-1. The format is cell-based. To be noted: JIMT-1, 5 and 10 μM, 72 hours, flow cytometer. Here is the method: as §1, §2
The next experiment has as its system BT474 cell line. The experiment in a line: MTS cell viability assay in BT474 cell line. The format is cell-based. The conditions noted are these: Homo sapiens, BT-474, BT474, 72 hours. Here is the method:
(§4) Specifically, cells were attached to 96 well plates for 24 hours, and then treated with the indazole derivatives for 72 hours. Thereafter, the cells were chromogenized with MTS for 4 hours, and the absorbance was measured at 490 nm using a Spectramax Plus384 microplate analyzer.
(§5) HER2 positive breast cancer (HER2+BC) cell lines, BT474 (cell seeding numbers: 2.4 (BT474)×10^4 cells/wells (confluency≥50%)) sensitive to trastuzumab and JIMT-1 (cell seeding numbers: 1.0 (JIMT-1)×10^4 cells/wells (confluency>30%)) resistant to trastuzumab were used in the experiment.
(§6) In this case, the cell lines were treated with the benzopyran derivative at a concentration of 10 μM for 72 hours and the cell lines were treated with the indazole derivative at a concentration of 10 μM for 72 hours, and then the cell viability was measured.
(Formazan colour is commonly taken as a measure of viable cells.)

Experiment [4] deals with cleaved caspase-3, cleaved caspase-7, PARP in BT474 cell line. The experiment in a line: Western blotting of apoptosis-related proteins, BT474. In kind it is cell-based. The conditions noted are these: BT474, 10 μM, 72 hours; for amounts of cleaved caspase-3 and cleaved caspase-7: compared to the control group. Here is the method: (§7) To investigate the mechanism of cell death by compound 18c (formula 1-16) and compound 11k (formula 1-7), the activation of apoptosis-related factor caspase family members was determined through western blotting.
as §3

In experiment [5] the test system is JIMT-1 breast cancer cell line xenograft. Briefly: Tumor growth in xenograft mouse model transplanted with JIMT-1. In kind it is in vivo, Balb/c nude mice. To be noted: intraperitoneally, 30 mg/kg compound 18c or 20 mg/kg compound 11k; for tumor volume / tumor weight: compared to the control group. The method, then:
This experiment was performed in an in vivo environment using a xenograft mouse model transplanted with the JIMT-1 breast cancer cell line.
6-week-old mice (Balb/c nude mice) were purchased and raised in an environment where they could freely access food and water. The mice were acclimated for more than 7 days, and then were transplanted with tumor cells. Tumor cells were injected subcutaneously into the mammary gland tissue of JIMT-1 breast cancer cells at a density of 3×10^6 cells/mL per individual, and when the tumor reached a size of 50 to 100 mm^3, the indazole derivative of the present disclosure was administered intraperitoneally, and the tumor growth was measured. The experimental groups were treated with either 30 mg/kg of compound 18c (formula 1-16) or 20 mg/kg of compound 11k (formula 1-7), and tumor volume, tumor weight, body weight, and the like were measured every 3 to 4 days from the time of administration until the end of the study.

Experiment [6] deals with cleaved caspase-3, cleaved caspase-7, PARP in JIMT-1 cell line. Briefly: Western blotting of apoptosis-related proteins, JIMT-1. The format is cell-based. The conditions noted are these: JIMT-1, 10 μM, 72 hours; for amounts of cleaved caspase-3 and cleaved caspase-7: compared to the control group. Here is the method: as §7, §3
A further experiment relates to JIMT-1 cell line. Briefly: MTS cell viability assay in JIMT-1 cell line. The conditions noted are these: Homo sapiens, JIMT-1, 72 hours. In kind it is cell-based. The method, then:
The control group was treated with DMSO as an untreated group (0 μM) of the indazole derivative of the present disclosure.
as §4, §5, §6

Regarding `COc1c(C(=O)Nc2ccc3c(C)nn(CCC4CCN(C)CC4)c3c2)ccc2c1C=CC(C)(C)O2` [compound 11k, 5-Methoxy-2,2-dimethyl-N-(3-methyl-1-(2-(1-methylpiperidin-4-yl)ethyl)-1H-indazol-6-yl)-2H-chromene-6-carboxamide], in experiment [1], the “G2/M phase of the cell cycle” value is recorded as “arrested the G2/M phase” and the “cell death (Sub-G1 population)” value was “significantly induced cell death”. In experiment [2], the “expression of HER2 and HER3” value is recorded as “decreased”; the “expression of activated forms phospho-HER2 and phospho-HER3” value is “significantly reduced”; the “expression of cell proliferation factors Akt, MEK, ERK, Bcl-2, Cyclin D1, and Survivin” value was “inhibited the expression”. In experiment [3], the “G2/M phase of the cell cycle” value is on record as “arrested the G2/M phase” and the “cell death (Sub-G1 population)” value is listed as “significantly induced cell death”. In the experiment on BT474 cell line, this molecule had an IC50 of 8.48 µM. Besides, in experiment [4], the “cleaved-PARP (89 kDa)” value is “increase”; the “amounts of cleaved caspase-3 and cleaved caspase-7” value (“amounts” for short) was “significantly increased”. For the same molecule, in experiment [5], the “tumor size (visual inspection)” value was “reduced by more than half”, the tumor volume result is reported as “significantly reduced” and the tumor weight entry is recorded as “significantly reduced”. In addition, in experiment [6], the “cleaved-PARP (89 kDa)” value is given as “increase”; the “amounts” value is “significantly increased”. The midpoint of inhibition in the experiment on JIMT-1 cell line, the IC50, lay at 4.06 µM.

As to `COCCn1nc(NC(=O)c2ccc3c(c2OC)C=CC(C)(C)O3)c2ccccc21` [compound 18c, 5-Methoxy-N-(1-(2-methoxyethyl)-1H-indazol-3-yl)-2,2-dimethyl-2H-chromene-6-carboxamide], in experiment [1], the “G2/M phase of the cell cycle” value is reported as “arrested the G2/M phase” and the “cell death (Sub-G1 population)” value is reported as “significantly induced cell death”. In addition, in experiment [2], the “expression of HER2 and HER3” value was “decreased”; the “expression of activated forms phospho-HER2 and phospho-HER3” value is recorded as “significantly reduced”; the “expression of cell proliferation factors Akt, MEK, ERK, Bcl-2, Cyclin D1, and Survivin” value is “inhibited the expression”. In addition, in experiment [3], the “G2/M phase of the cell cycle” value is recorded as “arrested the G2/M phase” and the “cell death (Sub-G1 population)” value was “significantly induced cell death”. Besides, it took 4.98 µM to reach half-maximal inhibition with BT474 cell line (IC50). Besides, in experiment [4], the “cleaved-PARP (89 kDa)” value is on record as “increase”; the “amounts” value is recorded as “significantly increased”. In addition, in experiment [5], the “tumor size (visual inspection)” value was “reduced by more than half”, the tumor volume result was “significantly reduced” and the tumor weight entry is recorded as “significantly reduced”. In experiment [6], the “cleaved-PARP (89 kDa)” value was “increase”; the “amounts” value is “significantly increased”. Further, the concentration for half-maximal inhibition (IC50) in the experiment with JIMT-1 cell line worked out at 4.6 µM.

Usually IC50 stands for the concentration that inhibits the measured activity by half. A high value points to lower potency.
